Assay results published in patent publication EP0906078B1, “TOPICAL USE OF TEMPOL IN THE PREVENTION OF PHOTOAGING” (Bernstein, Eric F., priority 1996, dated 1997).
Several values for one entry are separate records, joined by “and”; a condition that tells them apart may be missing. Equal entries are not always repeated.

Key:
[1] = test system: human elastin promoter; assay: UVB-induced promoter activation (CAT activity) in fibroblast cultures from transgenic mice
[2] = test system: human elastin promoter; assay: UVA/8-MOP (PUVA)-induced promoter activation (CAT activity) in fibroblast cultures from transgenic mice; format: cell-based
Description: Because a response to UVA alone in vitro is not measurable and the in vivo response is relatively small, 8-methoxypsoralen (8-MOP) was added to the system to enhance the promoter response to UVA.
In these experiments, control cells received no UVA or 8-MOP. UVA controls received either 0.5, 0.75 or 1.0 J/cm^2 of UVA without prior incubation with 8-MOP. 8-MOP controls received 1 µg/ml of 8-MOP but no UVA. Tempol controls received 100 mM Tempol and no UVA or 8-MOP. PUVA-treated cells were preincubated with 1.0 µg/ml of 8-MOP in PBS and then exposed to 0.5, 0.75 or 1.0 J/cm^2. Tempol treated cells were pretreated with 100 mM Tempol 12.5 minutes prior to UVA exposure. 8-MOP was also added to these cells at the same time as the Tempol.
The addition of Tempol to the cultures reduced the PUVA-induced increase in CAT activity to 1.5-, 1.2- and 2.0-fold that of controls, respectively, thus almost completely eliminating the PUVA-induced increase in CAT activity.
Fibroblast cultures were established from the skin of transgenic mice by explanting tissue specimens onto plastic tissue culture dishes and allowing cells to migrate to the surrounding area. The primary cultures were maintained in Dulbecco's modified Eagle's medium supplemented with 10% fetal calf serum, 2 mM L-glutamine and antibiotics, at 37°C. The primary cell cultures were passaged by trypsinization, and the subcultures in passages three or four were utilized for UVB treatment. After UV exposure, the cells were incubated in tissue culture medium for 24 hours, and then harvested for determination of CAT activity.
To measure the expression of the human elastin promoter/CAT reporter gene construct in the skin of transgenic mice and in fibroblast cultures established from these animals, CAT activity was determined. For extraction of the CAT from skin, the specimens were homogenized in 0.25 Tris-HCl, pH 7.5, using a tissue homogenizer (Brinkmann Instruments, Inc. Westbury, NY). The homogenates were centrifuged at 10,000 X g for 15 minutes at 4°C and the protein concentration in the supernatant determined by a commercial protein assay kit (Bio-Rad Laboratories, Richmond, CA). Aliquots of the supernatant containing 100 µg of protein were used for assay of CAT activity by incubation with [^14C] chloramphenicol in accordance with well-known procedures. The acetylated and non-acetylated forms of radioactive chloramphenicol were separated by thin-layer chromatography and CAT activity was determined by the radioactivity in the acetylated forms as a percent of the total radioactivity in each sample.
Irradiation with UVA was performed using a closely spaced array of seven Sylvania FR40T12 PUVA lamps filtered through window glass of 2 mm thickness to remove wavelengths below 320 nm. The energy output at 38 cm from the array was measured with a Solar Light Model 3D UVA and UVB detector (Solar Light Company, Philadelphia, PA). The output of the lamps filtered through the window glass was 2.02 mW/cm^2, with no detectable UVB.

[3] = test system: human elastin promoter; assay: Transgenic mouse model of photoaging: human elastin promoter/CAT reporter activity in skin after UVB; conditions: in vivo
[4] = in vivo; cited from earlier work
[5] = Absorption spectrum; format: physicochemical

SMILES | % Protection from UVB [1] | further reduction of CAT activity by scavenging properties [1] | reduction in CAT activity from cells treated with UVB alone [1] | CAT activity [2] | protection against the PUVA-induced increases in CAT activity [2] | CAT activity [3] | detection in the blood following application [4] | absorption in the UVA range [5] | CAT activity ([2]; 1 µg/ml 8-MOP and 0.5 J/cm^2 UVA, no Tempol, relative to controls) | CAT activity ([2]; 1 µg/ml 8-MOP and 0.75 J/cm^2 UVA, no Tempol, relative to controls) | CAT activity ([2]; 1 µg/ml 8-MOP and 1.0 J/cm^2 UVA, no Tempol, relative to controls) | CAT activity ([2]; 8-MOP alone (1 µg/ml), no UVA)
CC1(C)CC(O)CC(C)(C)N1[O] [Tempol, 4-hydroxy-2,2,6,6-tetramethyl-piperidinyloxy, free radical] | 41 p<0.01% and 74 p<0.001% and 69 p<0.001% and 42 p<0.001% | 38% | ~6 fold | 1.5 fold and 1.2 fold and 2.0 fold | failed to afford protection | 1.7 fold and 3.3 fold | undetectable | very little absorption | – | – | – | –
COc1c2occc2cc2ccc(=O)oc12 [8-MOP, 8-methoxypsoralen, reference compound] | – | – | – | – | – | – | – | – | 2.7 fold | 9.0 fold | 21.4 fold | failed to produce significant CAT activity
